Data reported in ChEMBL document CHEMBL1201862, “PubChem BioAssay data set” (2004).
One block for each compound: values may come before it. Calls of active or inactive are those of the source.

How the values were obtained:
[1] = target: T1, Kappa-type opioid receptor (Homo sapiens, UniProt P41145); assay: SAR analysis of small molecule agonists of the kappa opioid receptor via a luminescent beta-arrestin assay. [Related pubchem assays (depositor defined):AID1777, AID1786, AID1966, AID2133, AID2136, AID2348, AID2352, AID2357, AID2359, AID2370, AID2420, AID2478, AID2491, AID2492, AID2493, AID2497, AID2498, AID2500, AID449737, AID488822, AID488842]; type: functional
T1 sequence (P41145 whole entry): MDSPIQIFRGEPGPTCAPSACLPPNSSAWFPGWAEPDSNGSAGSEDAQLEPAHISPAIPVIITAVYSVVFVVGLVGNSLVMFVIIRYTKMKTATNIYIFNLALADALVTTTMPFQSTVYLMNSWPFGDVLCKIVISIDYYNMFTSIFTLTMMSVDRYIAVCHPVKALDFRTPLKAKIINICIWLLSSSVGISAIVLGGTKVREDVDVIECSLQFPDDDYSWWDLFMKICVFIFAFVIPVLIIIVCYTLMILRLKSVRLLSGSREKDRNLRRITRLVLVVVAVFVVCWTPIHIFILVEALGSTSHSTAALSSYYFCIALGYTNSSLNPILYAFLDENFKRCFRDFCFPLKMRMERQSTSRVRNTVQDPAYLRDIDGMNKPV

Mu-type opioid receptor [2] = target: T2, Mu-type opioid receptor (Homo sapiens, UniProt P35372); assay: MOR agonists by imaging, SAR follow-up, image-based (AID 2352); type: functional
T2 sequence (P35372 whole entry): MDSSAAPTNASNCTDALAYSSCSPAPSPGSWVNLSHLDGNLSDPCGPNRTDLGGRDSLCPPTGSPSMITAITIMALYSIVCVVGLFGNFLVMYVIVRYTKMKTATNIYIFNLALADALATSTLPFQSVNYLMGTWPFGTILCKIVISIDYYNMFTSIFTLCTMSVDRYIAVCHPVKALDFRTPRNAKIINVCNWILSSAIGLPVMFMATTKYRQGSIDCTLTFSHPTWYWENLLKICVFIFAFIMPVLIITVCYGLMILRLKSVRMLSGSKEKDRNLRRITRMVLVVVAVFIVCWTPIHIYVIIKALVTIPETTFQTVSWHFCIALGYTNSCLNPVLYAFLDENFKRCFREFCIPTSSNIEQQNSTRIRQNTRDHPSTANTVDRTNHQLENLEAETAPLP

[3] = target: T3, Delta-type opioid receptor (Homo sapiens, UniProt P41143); assay: DOR agonists, SAR follow-up, image-based (AID 2370); type: functional
T3 sequence (P41143 whole entry): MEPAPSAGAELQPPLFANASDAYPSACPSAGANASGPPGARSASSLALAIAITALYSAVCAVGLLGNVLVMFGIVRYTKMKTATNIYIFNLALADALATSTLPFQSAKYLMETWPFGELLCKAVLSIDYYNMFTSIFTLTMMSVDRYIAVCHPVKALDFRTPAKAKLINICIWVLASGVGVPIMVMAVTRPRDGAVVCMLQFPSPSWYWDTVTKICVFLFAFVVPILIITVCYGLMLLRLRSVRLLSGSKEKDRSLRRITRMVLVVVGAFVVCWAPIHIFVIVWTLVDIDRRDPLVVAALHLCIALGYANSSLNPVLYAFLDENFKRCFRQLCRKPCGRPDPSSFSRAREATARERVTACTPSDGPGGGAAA

[4] = target: T1, Kappa-type opioid receptor; assay: KOR antagonists by imaging, SAR follow-up, image-based (AID 2348); type: functional
Mu-type opioid receptor [5] = target: T2, Mu-type opioid receptor; assay: MOR antagonists, SAR follow-up, image-based (AID 2420); type: functional;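 further: compounds added before stimulation of receptor with agonist DAMGO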
[6] = target: T1, Kappa-type opioid receptor; assay: KOR agonist analogs, imaging readout, SAR follow-up, image-based (AID 2359); type: functional
[7] = target: T3, Delta-type opioid receptor; assay: DOR antagonists, SAR follow-up, image-based (AID 2357); type: functional
[8] = target: T4, Mannose-6-phosphate isomerase (Homo sapiens, UniProt P34949); assay: human PMI inhibitors, high substrate, primary screen, biochemical, fluorescence intensity, high mannose 6-phosphate (AID 1220)
T4 sequence (P34949 whole entry): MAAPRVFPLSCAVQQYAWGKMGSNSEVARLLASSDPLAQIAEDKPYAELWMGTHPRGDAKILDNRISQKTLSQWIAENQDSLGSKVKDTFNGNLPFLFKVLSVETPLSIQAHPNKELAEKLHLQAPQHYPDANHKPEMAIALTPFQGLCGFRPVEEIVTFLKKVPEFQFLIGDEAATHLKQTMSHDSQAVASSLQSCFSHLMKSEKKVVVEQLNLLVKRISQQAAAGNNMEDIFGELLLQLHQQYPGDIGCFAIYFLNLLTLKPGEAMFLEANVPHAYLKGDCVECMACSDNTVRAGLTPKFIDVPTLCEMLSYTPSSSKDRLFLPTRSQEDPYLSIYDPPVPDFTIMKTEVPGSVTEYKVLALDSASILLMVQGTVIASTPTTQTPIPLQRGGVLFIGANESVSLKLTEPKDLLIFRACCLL

[9] = target: T4, Mannose-6-phosphate isomerase; assay: PMI enzyme inhibitors, confirmation, biochemical, fluorescence intensity (AID 1535)
Phosphomannomutase 2 = Phosphomannomutase 2 (Homo sapiens, UniProt O15305); assay: Counter screen SAR assay for PMM2 inhibitors via a fluorescence intensity assay. [Related pubchem assays (depositor defined):AID1545, AID1574]
[10] = target: Eukaryotic translation initiation factor 4E (Mus musculus, UniProt P63073); assay: eIF4E–eIF4G protein interaction inhibitors, dose response, biochemical, TR-FRET (AID 855); type: functional;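 further: potency for disrupting eIF4E binding to eIF4GI seen as loss of FRET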
[11] = target: T5, Serine/threonine-protein phosphatase (Candida dubliniensis (strain CD36 / CBS 7987 / NCPF 3949 / NRRLY-17841) (Yeast), UniProt B9W6M3); assay: Fluorescence Cell-Based Secondary Assay to Identify Inhibitors of Calcineurin. [Related pubchem assays (depositor defined):AID1979, AID2007]; type: functional
T5 sequence (B9W6M3 whole entry): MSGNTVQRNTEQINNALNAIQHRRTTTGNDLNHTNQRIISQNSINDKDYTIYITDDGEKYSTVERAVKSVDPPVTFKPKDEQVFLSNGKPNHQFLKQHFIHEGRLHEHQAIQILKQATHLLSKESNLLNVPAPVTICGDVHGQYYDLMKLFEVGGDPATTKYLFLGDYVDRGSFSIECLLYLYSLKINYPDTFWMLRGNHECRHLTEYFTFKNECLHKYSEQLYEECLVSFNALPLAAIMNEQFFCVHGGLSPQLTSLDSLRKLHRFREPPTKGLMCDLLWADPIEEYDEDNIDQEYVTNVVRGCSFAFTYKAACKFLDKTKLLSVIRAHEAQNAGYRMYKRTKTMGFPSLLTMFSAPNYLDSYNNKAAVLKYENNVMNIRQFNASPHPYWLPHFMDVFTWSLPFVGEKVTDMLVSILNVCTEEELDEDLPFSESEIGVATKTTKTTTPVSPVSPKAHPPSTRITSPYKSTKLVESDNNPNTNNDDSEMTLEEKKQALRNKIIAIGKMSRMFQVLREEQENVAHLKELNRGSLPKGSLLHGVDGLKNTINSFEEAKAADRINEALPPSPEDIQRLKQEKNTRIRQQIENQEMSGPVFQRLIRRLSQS

Large T antigen = Large T antigen (Simian virus 40, UniProt P03070); type: functional, Betapolyomavirus macacae;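 further: Confirmatory-stage PubChem screen for compounds that inhibit SV40 T antigen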
[12] = target: T6, Intestinal-type alkaline phosphatase (Mus musculus, UniProt P24822); assay: PubChem AID 488785; type: functional
[13] = target: T7, Alkaline phosphatase, tissue-nonspecific isozyme (Homo sapiens, UniProt P05186); assay: TNAP enzyme inhibition by screening hits, dose response, selectivity assay for mouse IAP inhibitor project, biochemical, human TNAP, uHTS hits (AID 488906); type: functional
T7 sequence (P05186 whole entry): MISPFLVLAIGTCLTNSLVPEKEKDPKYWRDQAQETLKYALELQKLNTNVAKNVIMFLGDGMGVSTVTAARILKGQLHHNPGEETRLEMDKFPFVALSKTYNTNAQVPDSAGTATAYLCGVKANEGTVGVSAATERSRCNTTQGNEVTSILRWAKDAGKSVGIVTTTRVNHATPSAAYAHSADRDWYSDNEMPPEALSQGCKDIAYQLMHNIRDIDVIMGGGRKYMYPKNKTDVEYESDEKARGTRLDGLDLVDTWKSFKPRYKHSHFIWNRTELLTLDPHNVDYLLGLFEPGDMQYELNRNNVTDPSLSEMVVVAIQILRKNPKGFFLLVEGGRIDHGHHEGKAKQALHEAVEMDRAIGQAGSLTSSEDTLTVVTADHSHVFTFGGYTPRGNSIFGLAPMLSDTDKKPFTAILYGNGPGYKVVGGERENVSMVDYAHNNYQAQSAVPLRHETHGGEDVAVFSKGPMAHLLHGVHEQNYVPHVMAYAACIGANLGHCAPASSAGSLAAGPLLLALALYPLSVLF

[14] = target: T8, Intestinal-type alkaline phosphatase (Homo sapiens, UniProt P09923); assay: inhibition of human intestinal alkaline phosphatase – biochemical, dose response (AID 488876); type: functional
T8 sequence (P09923 whole entry): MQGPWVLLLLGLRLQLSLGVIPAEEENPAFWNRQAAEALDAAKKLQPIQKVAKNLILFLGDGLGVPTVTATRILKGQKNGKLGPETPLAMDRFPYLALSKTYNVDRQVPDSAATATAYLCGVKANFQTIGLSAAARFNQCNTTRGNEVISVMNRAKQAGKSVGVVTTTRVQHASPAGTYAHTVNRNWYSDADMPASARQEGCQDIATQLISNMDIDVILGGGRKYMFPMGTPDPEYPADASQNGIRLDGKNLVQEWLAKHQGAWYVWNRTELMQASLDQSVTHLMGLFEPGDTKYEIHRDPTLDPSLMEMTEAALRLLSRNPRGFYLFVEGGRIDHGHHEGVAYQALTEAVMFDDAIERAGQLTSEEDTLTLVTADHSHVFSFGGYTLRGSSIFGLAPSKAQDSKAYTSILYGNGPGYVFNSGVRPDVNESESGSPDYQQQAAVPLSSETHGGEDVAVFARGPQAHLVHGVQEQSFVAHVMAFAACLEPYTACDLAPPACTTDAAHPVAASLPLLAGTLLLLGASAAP

[15] = target: T6, Intestinal-type alkaline phosphatase; assay: PubChem AID 488874; type: functional
[16] = target: T8, Intestinal-type alkaline phosphatase; assay: human intestinal alkaline phosphatase activators, dose response, biochemical, luminescence, uHTS hits (AID 463120); type: functional
[17] = target: T8, Intestinal-type alkaline phosphatase; assay: human IAP activators, dose response, biochemical, luminescent, uHTS hits, set 2 (AID 488817); type: functional;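 further: potency of activators that raise enzyme activity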
[18] = target: T7, Alkaline phosphatase, tissue-nonspecific isozyme; assay: TNAP enzyme activators, dose response, selectivity assay for human IAP activator project, biochemical, TNAP isozyme, human IAP uHTS hits (AID 488886); type: functional;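 further: potency of compounds raising TNAP activity as a selectivity check on IAP activators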
[19] = target: T9, Voltage-gated N-type calcium channel alpha-1B subunit/Amyloid beta A4 precursor protein-binding family A member 1 (Homo sapiens, UniProt Q00975+Q02410); type: protein assay
T9 sequence (Q00975 whole entry): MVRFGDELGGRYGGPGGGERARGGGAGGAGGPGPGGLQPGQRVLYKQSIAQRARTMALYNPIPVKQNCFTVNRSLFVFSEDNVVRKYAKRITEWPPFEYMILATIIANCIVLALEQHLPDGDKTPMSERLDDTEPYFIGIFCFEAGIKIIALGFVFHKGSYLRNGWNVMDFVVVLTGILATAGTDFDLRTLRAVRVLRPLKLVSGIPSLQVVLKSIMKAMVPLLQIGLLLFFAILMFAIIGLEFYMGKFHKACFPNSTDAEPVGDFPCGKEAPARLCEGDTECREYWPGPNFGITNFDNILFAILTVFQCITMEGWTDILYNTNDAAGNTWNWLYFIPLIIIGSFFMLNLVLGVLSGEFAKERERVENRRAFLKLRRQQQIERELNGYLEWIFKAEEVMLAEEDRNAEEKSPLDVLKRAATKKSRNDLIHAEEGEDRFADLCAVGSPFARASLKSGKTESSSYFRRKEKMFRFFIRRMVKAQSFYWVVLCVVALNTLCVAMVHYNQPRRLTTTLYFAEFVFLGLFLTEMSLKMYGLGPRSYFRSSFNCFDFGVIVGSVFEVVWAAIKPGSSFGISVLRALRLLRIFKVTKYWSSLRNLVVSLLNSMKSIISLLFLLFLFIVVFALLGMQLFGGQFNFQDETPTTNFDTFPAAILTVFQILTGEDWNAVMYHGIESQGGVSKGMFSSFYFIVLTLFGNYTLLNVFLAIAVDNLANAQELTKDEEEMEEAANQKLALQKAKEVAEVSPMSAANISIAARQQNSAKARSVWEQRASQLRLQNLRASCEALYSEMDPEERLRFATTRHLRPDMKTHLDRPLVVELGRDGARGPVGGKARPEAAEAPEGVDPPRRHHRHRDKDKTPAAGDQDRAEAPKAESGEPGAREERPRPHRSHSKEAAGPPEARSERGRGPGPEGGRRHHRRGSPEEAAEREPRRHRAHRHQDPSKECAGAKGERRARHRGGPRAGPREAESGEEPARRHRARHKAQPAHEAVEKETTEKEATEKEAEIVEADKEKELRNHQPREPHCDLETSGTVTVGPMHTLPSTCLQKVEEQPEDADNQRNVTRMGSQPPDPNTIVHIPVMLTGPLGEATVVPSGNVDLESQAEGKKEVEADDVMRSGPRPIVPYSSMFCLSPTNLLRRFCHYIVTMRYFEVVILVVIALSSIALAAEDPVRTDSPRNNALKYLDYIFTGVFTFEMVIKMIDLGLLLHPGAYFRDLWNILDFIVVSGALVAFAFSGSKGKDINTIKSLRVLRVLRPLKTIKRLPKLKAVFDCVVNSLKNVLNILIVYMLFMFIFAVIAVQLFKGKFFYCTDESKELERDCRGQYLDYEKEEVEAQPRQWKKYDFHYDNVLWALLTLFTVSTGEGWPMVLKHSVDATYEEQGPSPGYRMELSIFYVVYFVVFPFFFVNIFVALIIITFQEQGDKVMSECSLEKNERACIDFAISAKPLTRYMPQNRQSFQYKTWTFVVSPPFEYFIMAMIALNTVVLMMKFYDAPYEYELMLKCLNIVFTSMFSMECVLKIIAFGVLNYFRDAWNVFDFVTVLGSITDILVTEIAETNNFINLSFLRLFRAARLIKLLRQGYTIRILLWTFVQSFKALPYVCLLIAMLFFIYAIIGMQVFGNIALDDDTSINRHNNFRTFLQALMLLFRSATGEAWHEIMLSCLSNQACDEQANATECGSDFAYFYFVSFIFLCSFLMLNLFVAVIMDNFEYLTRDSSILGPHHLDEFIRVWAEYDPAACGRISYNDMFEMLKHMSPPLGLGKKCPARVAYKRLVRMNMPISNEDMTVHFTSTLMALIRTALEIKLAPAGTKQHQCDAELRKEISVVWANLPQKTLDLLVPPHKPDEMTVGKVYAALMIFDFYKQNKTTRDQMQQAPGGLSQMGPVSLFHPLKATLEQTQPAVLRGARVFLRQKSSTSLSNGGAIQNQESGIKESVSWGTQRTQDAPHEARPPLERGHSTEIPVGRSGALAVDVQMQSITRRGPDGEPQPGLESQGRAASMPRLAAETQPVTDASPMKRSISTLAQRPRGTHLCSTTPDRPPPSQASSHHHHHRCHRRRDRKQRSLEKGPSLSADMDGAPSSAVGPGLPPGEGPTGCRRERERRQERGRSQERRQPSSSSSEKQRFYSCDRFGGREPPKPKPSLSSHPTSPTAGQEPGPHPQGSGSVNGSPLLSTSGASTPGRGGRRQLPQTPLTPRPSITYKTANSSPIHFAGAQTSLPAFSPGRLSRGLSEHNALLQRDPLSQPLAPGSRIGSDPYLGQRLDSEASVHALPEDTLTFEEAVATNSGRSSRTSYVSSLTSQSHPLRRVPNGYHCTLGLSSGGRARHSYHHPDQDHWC
T9 sequence (Q02410 whole entry): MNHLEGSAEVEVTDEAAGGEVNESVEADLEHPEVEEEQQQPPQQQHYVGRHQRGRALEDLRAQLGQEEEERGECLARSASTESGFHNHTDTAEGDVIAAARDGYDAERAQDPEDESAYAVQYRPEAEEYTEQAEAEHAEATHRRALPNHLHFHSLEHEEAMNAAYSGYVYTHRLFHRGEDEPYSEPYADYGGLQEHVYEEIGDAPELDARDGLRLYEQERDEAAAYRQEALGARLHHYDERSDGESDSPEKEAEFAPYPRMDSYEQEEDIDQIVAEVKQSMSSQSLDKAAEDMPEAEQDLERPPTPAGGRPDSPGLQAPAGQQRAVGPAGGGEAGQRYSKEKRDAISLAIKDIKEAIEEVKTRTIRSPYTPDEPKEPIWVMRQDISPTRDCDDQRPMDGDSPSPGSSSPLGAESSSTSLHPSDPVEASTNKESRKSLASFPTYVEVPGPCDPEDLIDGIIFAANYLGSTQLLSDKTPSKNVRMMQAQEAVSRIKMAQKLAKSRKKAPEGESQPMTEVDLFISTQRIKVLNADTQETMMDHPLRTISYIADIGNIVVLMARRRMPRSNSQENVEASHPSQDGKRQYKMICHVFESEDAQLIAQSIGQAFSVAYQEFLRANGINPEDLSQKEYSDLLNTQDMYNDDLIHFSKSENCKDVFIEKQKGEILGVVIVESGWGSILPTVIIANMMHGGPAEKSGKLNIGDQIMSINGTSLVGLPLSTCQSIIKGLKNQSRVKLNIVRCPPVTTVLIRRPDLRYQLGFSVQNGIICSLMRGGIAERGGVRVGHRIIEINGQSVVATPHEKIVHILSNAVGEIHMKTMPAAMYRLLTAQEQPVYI

[20] = target: T9, Voltage-gated N-type calcium channel alpha-1B subunit/Amyloid beta A4 precursor protein-binding family A member 1; type: protein assay; remark: listed apart in the source
[21] = target: Induced myeloid leukemia cell differentiation protein Mcl-1 (Homo sapiens, UniProt Q07820); type: functional
[22] = target: T10, Apoptotic protease-activating factor 1 (Homo sapiens, UniProt O14727); assay: activation of Apaf-1 mediated apoptosis – fluorescent, uHTS hits, dose response (AID 588554); type: functional
T10 sequence (O14727 whole entry): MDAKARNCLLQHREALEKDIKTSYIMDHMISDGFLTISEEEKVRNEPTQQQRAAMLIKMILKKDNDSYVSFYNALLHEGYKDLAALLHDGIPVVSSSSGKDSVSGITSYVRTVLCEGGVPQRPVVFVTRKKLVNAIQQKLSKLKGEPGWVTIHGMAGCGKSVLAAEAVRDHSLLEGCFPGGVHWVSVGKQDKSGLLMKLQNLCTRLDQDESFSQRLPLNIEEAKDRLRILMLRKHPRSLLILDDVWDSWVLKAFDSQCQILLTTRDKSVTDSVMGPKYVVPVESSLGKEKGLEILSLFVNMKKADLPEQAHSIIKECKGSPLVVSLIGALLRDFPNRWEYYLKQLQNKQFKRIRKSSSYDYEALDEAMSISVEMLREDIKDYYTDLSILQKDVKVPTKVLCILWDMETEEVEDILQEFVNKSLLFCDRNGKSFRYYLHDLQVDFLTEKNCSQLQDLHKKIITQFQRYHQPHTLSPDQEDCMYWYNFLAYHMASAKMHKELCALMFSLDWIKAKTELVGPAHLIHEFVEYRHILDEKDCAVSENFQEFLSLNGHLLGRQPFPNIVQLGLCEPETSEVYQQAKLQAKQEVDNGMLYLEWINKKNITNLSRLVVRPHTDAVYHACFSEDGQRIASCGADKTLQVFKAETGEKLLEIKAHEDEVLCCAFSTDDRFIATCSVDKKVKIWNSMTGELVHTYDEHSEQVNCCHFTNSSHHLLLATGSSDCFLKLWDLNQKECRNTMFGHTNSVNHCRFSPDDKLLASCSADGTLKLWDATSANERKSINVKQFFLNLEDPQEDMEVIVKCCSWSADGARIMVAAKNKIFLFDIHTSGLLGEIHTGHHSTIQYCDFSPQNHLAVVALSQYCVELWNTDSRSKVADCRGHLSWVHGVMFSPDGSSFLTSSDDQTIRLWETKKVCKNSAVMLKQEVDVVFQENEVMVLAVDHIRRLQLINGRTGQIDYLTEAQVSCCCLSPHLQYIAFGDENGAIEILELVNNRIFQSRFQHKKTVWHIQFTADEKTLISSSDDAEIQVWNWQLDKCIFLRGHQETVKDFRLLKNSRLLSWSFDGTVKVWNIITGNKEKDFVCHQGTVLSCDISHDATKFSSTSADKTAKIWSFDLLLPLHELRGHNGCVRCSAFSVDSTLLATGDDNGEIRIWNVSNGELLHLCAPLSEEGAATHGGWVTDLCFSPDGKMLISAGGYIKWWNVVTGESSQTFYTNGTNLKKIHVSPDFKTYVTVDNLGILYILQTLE

[23] = target: T11, Carboxy-terminal domain RNA polymerase II polypeptide A small phosphatase 1 (Homo sapiens, UniProt Q9GZU7); assay: inhibitors of CTDSP1, concentration-response testing, biochemical assay, absorbance-based, actives from ultra-high-throughput screening (AID 540297); type: functional
T11 sequence (Q9GZU7 whole entry): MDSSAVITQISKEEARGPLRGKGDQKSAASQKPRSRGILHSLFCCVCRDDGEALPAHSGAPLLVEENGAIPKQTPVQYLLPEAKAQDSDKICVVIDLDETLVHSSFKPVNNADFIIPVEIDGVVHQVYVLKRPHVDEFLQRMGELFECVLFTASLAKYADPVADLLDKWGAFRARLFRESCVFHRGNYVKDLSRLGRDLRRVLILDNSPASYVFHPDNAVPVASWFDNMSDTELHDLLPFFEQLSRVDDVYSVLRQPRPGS

[24] = target: DNA (cytosine-5)-methyltransferase 1 (Homo sapiens, UniProt P26358); assay: DNMT1 methyltransferase inhibitors, confirmation, biochemical, fluorescent molecular beacon (AID 602386); type: functional
[25] = target: T12, Small ubiquitin-related modifier 1 (Homo sapiens, UniProt P63165); assay: inhibitors of SUMO1 peptide binding, dose response, biochemical, fluorescence polarization, uHTS hits (AID 624382); type: functional; details: read-out: IC50_Mean
T12 sequence (P63165 whole entry): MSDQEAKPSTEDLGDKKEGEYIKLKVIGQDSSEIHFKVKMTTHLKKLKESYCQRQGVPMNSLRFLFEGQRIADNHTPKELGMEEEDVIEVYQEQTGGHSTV

[26] = target: T12, Small ubiquitin-related modifier 1; assay: inhibitors of SUMO1 partner interactions, dose response, biochemical, FRET (AID 624383); type: functional; details: read-out: IC50_Mean

Compound: Nc1nccnc1C(=O)Nc1nnc(SCc2ccc(Cl)cc2)s1
- EC50 [11]: > 285 µM (inactive)

Compound: Oc1cc(O)c2c(c1)OC(c1ccc(O)c(O)c1)C(O)C2 (stereo not drawn)
- IC50 (Large T antigen): 8.64 µM (active)
- IC50 [12]: 24.1 µM (active)
- IC50 [13]: > 100 µM (inactive)
- IC50 [14]: > 100 µM (inactive)

Compound: Cc1nc2c3ccccc3nc(NNC(=O)CCC(=O)NCCC(C)C)n2n1
- IC50 [15]: 50.4 µM (active)
- EC50 [16]: 7.93 µM (active)
- EC50 [17]: 19.2 µM (active)
- EC50 [18]: 12.5 µM (active)

Compound: C=C(C)C(=O)Nc1cccc(C2=NOC3(C2)C[C@@H](C(N)=O)N(C(=O)/C(C)=C/C)C3)c1 (stereo partly drawn)
- IC50 [19]: 17.7 µM (active)
- IC50 [20]: > 50 µM (inactive)
- IC50 [21]: 23.6 µM (not active)
- EC50 [22]: 1.69 µM (active)
- IC50 [23]: 0.54 µM (active)
- IC50 [24]: 1.94 µM (active)
- IC50 [25]: > 66.6 µM (inactive)
- IC50 [26]: 0.869 µM (active)

Now from value to compound:

- EC50 [1]: > 10 µM (inactive)
- EC50 (Mu-type opioid receptor [2]): > 32 µM (inactive)
- EC50 [3]: > 32 µM (inactive)
- IC50 [4]: > 32 µM (inactive)
- IC50 (Mu-type opioid receptor [5]): > 32 µM (inactive)
- EC50 [6]: > 32 µM (inactive)
- IC50 [7]: > 32 µM (inactive)
Compound: COc1ccc(CC2(CO)CCN(Cc3nccn3-c3cccc(C)c3)CC2)cc1

- IC50 [8]: 6.24 µM (active)
- IC50 [9]: 3.12 µM (active)
- IC50 (Phosphomannomutase 2): 97.3 µM (active)
- IC50 [10]: 15.2 µM (active)
Compound: COc1cc(/N=c2\ssnc2Cl)c(OC)cc1Cl
